Test results reported in patent publication US20030170643A1, “Regulation of apoB treatment and drug screening for cardiovascular and metabolic disorders or syndromes” (priority 1999, published 2003).

Molecular target: T1, MTP (Rattus norvegicus, UniProt D4A1W8)
T1 construct: endogenous in cells; host or cells: rat primary hepatocytes (male Sprague-Dawley), cell lysate
T1 sequence (D4A1W8 22-896): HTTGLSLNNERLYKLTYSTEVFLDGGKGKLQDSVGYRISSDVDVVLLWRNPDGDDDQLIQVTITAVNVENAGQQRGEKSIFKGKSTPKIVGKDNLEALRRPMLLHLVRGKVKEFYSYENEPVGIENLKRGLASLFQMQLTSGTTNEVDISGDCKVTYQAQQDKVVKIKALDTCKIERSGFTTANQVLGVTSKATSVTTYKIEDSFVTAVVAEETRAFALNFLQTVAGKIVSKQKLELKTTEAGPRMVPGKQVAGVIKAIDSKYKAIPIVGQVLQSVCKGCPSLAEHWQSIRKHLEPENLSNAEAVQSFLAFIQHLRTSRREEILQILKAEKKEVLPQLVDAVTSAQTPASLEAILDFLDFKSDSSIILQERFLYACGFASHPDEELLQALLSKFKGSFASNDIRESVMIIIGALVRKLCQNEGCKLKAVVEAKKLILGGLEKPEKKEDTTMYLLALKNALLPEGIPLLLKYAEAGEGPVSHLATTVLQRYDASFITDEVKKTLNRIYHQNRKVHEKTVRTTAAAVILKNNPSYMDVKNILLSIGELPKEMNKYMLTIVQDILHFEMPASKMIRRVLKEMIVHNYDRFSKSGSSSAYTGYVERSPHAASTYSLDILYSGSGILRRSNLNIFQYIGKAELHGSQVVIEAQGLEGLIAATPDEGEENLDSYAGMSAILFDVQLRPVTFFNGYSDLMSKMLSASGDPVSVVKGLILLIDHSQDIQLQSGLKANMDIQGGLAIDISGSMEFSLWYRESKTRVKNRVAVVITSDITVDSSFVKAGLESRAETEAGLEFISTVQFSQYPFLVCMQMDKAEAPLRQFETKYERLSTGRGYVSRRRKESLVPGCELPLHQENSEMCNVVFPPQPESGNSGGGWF
T1 sequence (P04785 20-509 partner): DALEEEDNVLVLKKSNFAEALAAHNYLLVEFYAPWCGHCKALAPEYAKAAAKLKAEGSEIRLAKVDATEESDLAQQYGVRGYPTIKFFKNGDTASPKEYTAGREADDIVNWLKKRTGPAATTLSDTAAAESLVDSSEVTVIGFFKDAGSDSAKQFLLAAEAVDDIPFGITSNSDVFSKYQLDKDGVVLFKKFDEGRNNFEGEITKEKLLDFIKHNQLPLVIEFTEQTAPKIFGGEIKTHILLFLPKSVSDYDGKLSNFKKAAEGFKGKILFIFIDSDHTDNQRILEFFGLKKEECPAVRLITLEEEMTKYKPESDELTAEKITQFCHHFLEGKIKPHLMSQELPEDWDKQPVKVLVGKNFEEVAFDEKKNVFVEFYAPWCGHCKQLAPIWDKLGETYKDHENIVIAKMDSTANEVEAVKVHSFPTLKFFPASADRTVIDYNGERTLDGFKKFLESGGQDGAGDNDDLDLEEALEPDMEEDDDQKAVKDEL
Assay: MTP activity in lysates of fatty acid-pretreated rat primary hepatocytes
Format: biochemical
Conditions: hepatocytes pre-treated 6 hr with BSA, OA or EPA
Experimental: Three methods were used to assess possible effects of Ω-3 fatty acids on cellular MTP function. First, rat primary hepatocytes were incubated with BSA, OA, or EPA, and then MTP activity in cell lysates was measured using a fluorescent assay (Roar Biomedical, New York, NY). Second, to determine if lipid classes synthesized in the presence of OA or Ω-3 fatty acid are equivalent substrates for MTP, primary rat hepatocytes or HepG2 cells were incubated with tritiated OA or EPA, total cellular lipids were extracted into isopropanol, and biosynthetically labeled cholesteryl ester, triglyceride, and phospholipids were separated by preparative thin layer chromatography. […] Transfer of the labeled lipids to acceptor vesicles in the presence of 50 μg of purified bovine MTP was measured as described in Jamil, H. et al (1995) J Biol Chem 270(12), 6549-54.
First, it was necessary to test the possibility that Ω-3 fatty acids stimulate apob degradation by impeding MTP-dependent early lipidation, thereby targeting apoB to proteasomes. Rat primary hepatocytes were pre-treated for 6 hr with BSA, OA, or EPA, and then the MTP activity in lysates of these cells was assessed using artificial donor and acceptor vesicles, with [^14C]triolein as the MTP substrate, as described in Jamil, H. et al. (1995) J Biol Chem 270(12), 6549-54.

Structure (SMILES): CCCCCCCC/C=C\CCCCCCCC(=O)O [OA, oleic acid]
- MTP-mediated transfer of labeled triolein in cell lysates: No difference
